Assay results taken from patent publication US8889705B2, “Noscapine analogs and their use in treating cancers” (Emory University, priority 2007, dated 2014).

Assays:
Assay in all cases: Cell cycle analysis (propidium iodide, flow cytometry)
Assay type in all cases: cell-based, human
[1] = tested on: CEM/VM-1-5 cells; details: CEM/VM-1-5, 25 μM
Experimental: (§1) The flow cytometric evaluation of the cell cycle status was performed as described previously (Zhou et al., 2003). Briefly, 2×10^6 cells were centrifuged, washed twice with ice-cold PBS, and fixed in 70% ethanol. Tubes containing the cell pellets were stored at 4° C. for at least 24 hours. Cells were then centrifuged at 1000×g for 10 min and the supernatant was discarded. The pellets were washed twice with 5 ml of PBS and then stained with 0.5 ml of propidium iodide (0.1% in 0.6% Triton-X in PBS) and 0.5 ml of RNase A (2 mg/ml) for 45 minutes in dark. Samples were then analyzed on a FACSCalibur flow cytometer (Beckman Coulter Inc., Fullerton, Calif.).

[2] = tested on: 1A9 cells; details: 1A9, 50 μM
Experimental: as §1

[3] = tested on: 1A9/PTX22 cells; details: 1A9/PTX22, 50 μM
Experimental: as §1

## COc1ccc2c(c1OC)C(=O)O[C@@H]2[C@H]1c2c(c([N+](=O)[O-])c3c(c2OC)OCO3)CCN1C [9-nitro-nos, (S)-6,7-dimethoxy-3-((R)-4-methoxy-6-methyl-9-nitro-5,6,7,8-tetrahydro-[1,3]dioxolo[4,5-g]isoquinolin-5-yl)isobenzofuran-1(3H)-one]
[1]; 0 h
  G0/G1: 36.0%
  G2/M: 30.7%
  S: 19.4%
  Sub-G1: 3.4%
[1]; 24 h
  G0/G1: 25.4%
  G2/M: 41.0%
  S: 13.0%
  Sub-G1: 18.8%
[1]; 48 h
  G0/G1: 13.7%
  G2/M: 15.0%
  S: 11.0%
  Sub-G1: 58.0%
[1]; 72 h
  G0/G1: 10.5%
  G2/M: 12.2%
  S: 8.7%
  Sub-G1: 63.0%
[2]; 0 h
  G0/G1: 50.0%
  G2/M: 21.2%
  S: 21.8%
  Sub-G1: 0.7%
[2]; 24 h
  G0/G1: 30.6%
  G2/M: 34.2%
  S: 14.3%
  Sub-G1: 12.0%
[2]; 48 h
  G0/G1: 28.6%
  G2/M: 17.2%
  S: 10.6%
  Sub-G1: 38.0%
[2]; 72 h
  G0/G1: 16.7%
  G2/M: 9.0%
  S: 9.6%
  Sub-G1: 56.3%
[3]; 0 h
  G0/G1: 57.0%
  G2/M: 20.4%
  S: 8.8%
  Sub-G1: 3.5%
[3]; 24 h
  G0/G1: 27.3%
  G2/M: 31.4%
  S: 4.7%
  Sub-G1: 30.0%
[3]; 48 h
  G0/G1: 5.9%
  G2/M: 44.3%
  S: 3.4%
  Sub-G1: 44.6%
[3]; 72 h
  G0/G1: 14.1%
  G2/M: 13.7%
  S: 5.7%
  Sub-G1: 59.0%
